Columns and labels:
[1] = target: T1, Sam68ΔC and Fyn-SH3 binding (Homo sapiens, UniProt Q07666); experiment: SH3 domain binding inhibition test 1: Sam68ΔC bound to Fyn-SH3 beads, Western blot; inhibition ratio from band intensity (Test Examples 1 and 4); parameters: species or system recombinant human Sam68ΔC; mouse recombinant Fyn SH3 domain; conditions: for inhibition at 60 µM / inhibition at 150 µM: read-out: The inhibition ratio (%) of the compound against SH3 domain binding
T1 construct: (Sam68ΔC) [Sam68(331-443): made by Santa Cruz Co.]; purchased Santa Cruz Sam68(331-443); Fyn(85-139) AC
T1 sequence (Q07666 331-443, stated change not applied): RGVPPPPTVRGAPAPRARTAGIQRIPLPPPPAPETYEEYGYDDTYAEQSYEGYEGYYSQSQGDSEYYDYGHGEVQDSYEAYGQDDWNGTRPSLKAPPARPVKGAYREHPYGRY
Method: (1) Treatment of Proteins Containing the Proline-Rich Sequences with the Compounds.
The recombinant human Sam68 containing the 2 proline-rich sequences at the C terminal out of 5 proline-rich sequences in Sam68 containing proline-rich sequences (Sam68ΔC) [Sam68(331-443): made by Santa Cruz Co.], 0.25 μg was added to 1 mL of RSB buffer (10 mmol/L Tris-HCl, pH 7.6, 10 mmol/L NaCl, 1.5 mmol/L MgCl2), which is a hypotonic buffer solution containing 0.1% BSA (bovine serum albumin) [bovine serum albumin (F-V): made by Nakaraitesk] to prepare a Sam68ΔC solution. The compound was dissolved in dimethylsulfoxide (DMSO) to prepare a 10 mmol/L solution in DMSO. […] The same amount of DMSO was added to each sample. The compound was subjected to the reaction with Sam68ΔC by incubating the mixture at 37° C. for 6 hours with rotation by a roller culture machine.
(2) Treatment of Proteins Containing the SH3 Domain with the Proteins Containing the Proline-Rich Sequences Treated with the Compounds.
The Sam68ΔC solution treated with the compound, which was obtained in (1), was applied to 5 μL of Fyn-SH3-agarose beads (Fyn-SH3 beads) [Fyn(85-139) AC; made by Santa Crutz Co.], which was a mouse recombinant protein of the Fyn SH3 domain containing the SH3 domain bound to agarose beads. The binding reaction of the Sam68ΔC reacted with the compounds with Fyn-SH3 beads containing the SH3 domain were carried out at 4° C. for 16 hours with slow rotation by the roller culture machine. After the reaction, a resulting complex of Sam68ΔC and Fyn-SH3 beads was precipitated by centrifugation at […] for 3 minutes at 4° C., and then 1 mL of the TritonX/Np40 extraction buffer containing detergents [50 mmol/L Tris-HCl buffer, pH 7.4, 150 mmol/L NaCl, 1 mmol/Lethylenediaminetetraacetic acid (EDTA), 1% TritonX-100, 0.5% Nonidet P-40] was added thereto. The mixture was rotated slowly at 4° C. for 10 minutes by the roller culture machine, and precipitated and washed twice in a similar manner to that as described above. To the complex of Sam68ΔC and Fyn-SH3 beads washed above, 30 μL of Lemery's sample buffer [Protein Chemistry I-Isolation and Purification, Tokyo Kagaku Dojin, p. 211 (1976)] was added, and then the mixture was mixed well and heated at 100° C. for 10 minutes. After precipitating the beads at 1000 ppm for 5 minutes at 25° C. by a centrifuge, the supernatant was subjected to 10% polyacrylamide gel electrophoresis.
(3) Detection of Sam68ΔC Bound to the Fyn-SH3 by Western Blotting.
Sam68ΔC in the supernatant was detected by Western blotting as follows. First, the resulting gel performed the electrophoresis, which was obtained in (2), was blotted onto a nitrocellulose membrane with pore size of 0.45 μm [Protran; made by Schleicher and Schuell Co.]. After non-specific binding of the membrane was blocked by incubating the membrane at 4° C. overnight in phosphate buffer (PBS) containing 0.25% gelatin and 0.2% Tween-20 (PBS-TG), the membrane reacted with mouse anti GST antibody conjugated with horse radish peroxidase (HRP) [GST (B-14) HRP; made by Santa Crutz Co.], which was diluted 1000 times with PBS-TG, for 2 hours. After washing with PBS containing 0.2% Tween 20 (PBS-T), the detection was carried out by the chemo-luminescence reaction using ECL reagent (Amersham Pharmacia Biotech Co.).
The inhibition ratios of the compound against the SH3 domain binding were calculated as follows based on the plot of the results of the Test Example 1. The intensity of the chemo-luminescent bands of Fyn-SH3 and Sam68ΔC developed on a film was measured by a gel-scanner (TYOBO). The relative intensity of Sam68ΔC band against the intensity of Fyn-SH3 band was obtained by dividing the Sam68ΔC band intensity by the Fyn-SH3 band intensity. The ratio of the Fyn-SH3 band intensity to the Sam68ΔC band intensity was set to be 100% when no compound was added. […]

HIV-1 LAI strain = experiment: HIV-1 growth inhibition test (RT assay) in MT2 cells; format: cell-based; conditions: MT2 cells, 3, 5, 7 and 9 days after infection; 1, 5, 10, 25 and 50 mmol/L as printed; FIGS. 9-11 Compound 1, FIGS. 12-14 PP2
Method: (1) HIV-1 Infection and Growth Inhibition Experiment.
MT2 cells (T cell strain) were suspended in RPMI1640 medium (GIBCO No.26140-076) supplemented with 10% fetal calf serum (GIBCO, No.26140-079) at 2×10^5 cells/mL and distributed into the each well of 24 well plates (24 well plate: Coster No. 3526) by 1 mL per well. HIV-1 LAI strain {pLAI that contains DNA clone of the whole genome [GeneBank accession No. K02013 Virology 185:661 (1991)] was transfected to HeLa cells by using FuGENE6 Transfection Reagent (Roche Co. No. 1814443), incubated for 2 days and the supernatant was used.} was inoculated to each well at a final concentration of 500 cpm/μL and incubated at 37° C. overnight (virus infection). […]
HIV-1 was determined by the RT assay (Reverse Transcriptase sassy) according to the method described in J. Virol., Vol. 38, p. […]
To 5 μL of the culture supernatant obtained in (1), 25 μL of RT cocktail {50 mmol/L Tris-HCl pH 7.5, 50 mmol/L EDTA, 75 mmol/L KCl, 5 mmol/L MgCl2, 5 μg/mL Poly(A) [Pharmacia, No. 27-4110-01], 1.6 μg/mL oligo(dT)12-18 [Pharmacia, No. 27-7858-01], 5 mmol/L DTT (dithiothreitol), 0.05% NP-40 and 10 PCi/ml [α-^32P]dTTP} was added, and the mixture was incubated at 37° C. for 2 hours. […] The amount of HIV-1 was measured as RT activity count (cpm/μL) with a MICROBRTA PLUS liquid scintillation counter (Perkin Elmer). […]

MT2 cells = experiment: Cyto-toxicity test, Trypan blue live cell count; format: cell-based; conditions: 10 μmol/L, incubated for 3 days
Method: MT2 cells (T cell strain) were suspended in RPMI1640 medium (GIBCO, No. 26140-076) supplemented with 10% fetal calf serum (GIBCO, No. 26140-079) at 2×10^5 cells/mL and distributed into each well of 96 well plates [96 well plate: Coster] at 100 μL per well. The compound was added to each well and incubated for 3 days. The cultures were observed under a microscope to examine the condition of cells and cells were harvested, stained with 0.4% Trypan blue (SIGMA, T-8154) and live cells were counted.

[2] = Concentration of the compound 20 μmol/L
[3] = Concentration of the compound 100 μmol/L
[4] = Concentration of the compound 60 μmol/L
[5] = Concentration of the compound 150 μmol/L

Row | Molecule | inhibition at 60 µM [1, 4] [%] | inhibition at 150 µM [1, 5] [%] | other results
1 | C[C@H]1C/C=C/[C@H]2[C@@H]3O[C@]3(C)[C@@H](C)[C@H]3[C@H](Cc4ccccc4)NC(=O)[C@]32OC(=O)O/C=C/[C@@](C)(O)C1=O [Compound 13, Cytochalasin E] | – | – | The inhibition ratio (%) of the compound against SH3 domain binding [1, 2]: 0%; The inhibition ratio (%) of the compound against SH3 domain binding [1, 3]: 21%
2 | C/C1=C\CC(=O)OC23C(=O)NC(Cc4ccc(O)cc4)C2C(C)C2(C)OC2C3/C=C/CC(C)C1=O (stereo not drawn) [Compound 16] | 67 | 78 | –
3 | COc1ccc(CC2NC(=O)C34OC(=O)OCCC(C)(O)C(=O)C(C)C/C=C/C3C3OC3(C)C(C)C24)cc1 (stereo not drawn) [Compound 17] | – | 36 | –
4 | C=C1C(C)C2C(Cc3ccc(OC)cc3)NC(=O)C23OC(=O)O/C=C/C(C)(O)C(=O)C(C)C/C=C/C3C1O (stereo not drawn) [Compound 18] | 16 | 67 | –
5 | COc1ccc(CC2NC(=O)C34OC(=O)O/C=C/C(C)(O)C(=O)C(C)C/C=C/C3C(O)C(C)=C(C)C24)cc1 (stereo not drawn) [Compound 19] | – | 40 | –
6 | CC1=CC2/C=C(\C)CCC(O)C(O)/C=C/C(=O)OC23C(=O)NC(CC(C)C)C3C1C (stereo not drawn) [Compound 20] | 92 | 100 | –
7 | CC1=CC2/C=C(\C)CCCC(O)/C=C/C(=O)OC23C(=O)NC(CC(C)C)C3C1C (stereo not drawn) [Compound 21] | 64 | 100 | –
8 | CC1=CC(/C=C(\C)CCC=O)C2(C(=O)/C=C/C=O)C(=O)NC(CC(C)C)C2C1C (stereo not drawn) [Compound 22] | 91 | 100 | –
9 | CC1=CC2/C=C(\C)CCC(=O)C(=O)CCC(=O)C23C(=O)NC(CC(C)C)C3C1C (stereo not drawn) [Compound 24, Aspochalasin A] | 62 | 80 | –
10 | CC1=CC2/C=C(\C)CCC(O)C(=O)/C=C/C(=O)C23C(=O)NC(CC(C)C)C3C1C (stereo not drawn) [Compound 25, Aspochalasin B] | 87 | 100 | –
11 | CC1=CC2/C=C(\C)CCC(O)C(O)/C=C/C(=O)C23C(=O)NC(CC(C)C)C3C1C (stereo not drawn) [Compound 26, Aspochalasin C] | 92 | 100 | –
12 | CC1=CC2/C=C(\C)CCC(O)C(O)/C=C/C(=O)C23C(=O)NC(CC(C)C)C3C1C (stereo not drawn) [Compound 27, Aspochalasin D] | – | – | The inhibition ratio (%) of the compound against SH3 domain binding [1, 4]: 100%; The inhibition ratio (%) of the compound against SH3 domain binding [1, 5]: 100%
13 | CC1=CC2/C=C(\C)CCC(O)C(O)C(O)CC(=O)C23C(=O)NC(CC(C)C)C3C1C (stereo not drawn) [Compound 28, Aspochalasin E] | 31 | 73 | –
14 | CC(C)(C)n1nc(-c2ccc(Cl)cc2)c2c(N)ncnc21 [pp2, 4-amino-5-(4-chrolophenyl)-7-(tert-butyl)-pyrazolo[3,4-d]pyrimidine] | – | – | amount of HIV-1 (RT activity count) (HIV-1 LAI strain): increased
15 | Mer-WF1726 [Compound 12] | – | – | The inhibition ratio (%) of the compound against SH3 domain binding [1, 2]: 39%; The inhibition ratio (%) of the compound against SH3 domain binding [1, 3]: 88%
16 | UCS15A [Compound 1] | – | – | live cells (Trypan blue) (MT2 cells): live cells were not decreased; The inhibition ratio (%) of the compound against SH3 domain binding [1, 4]: 0%; The inhibition ratio (%) of the compound against SH3 domain binding [1, 5]: 46%

— US20050069999A1, “Sh3 domain binding inhibitors” (priority 2001, published 2005)
